Experimental data: ChEMBL document CHEMBL1132956 (J Med Chem, 2000)

What was measured:
Homo sapiens [1] = organism: Homo sapiens; experiment: tissue or blood
Description: Analysis of TXB2 as a function of COX-1 activity in heparinized human whole blood.

Homo sapiens [2] = organism: Homo sapiens; experiment: tissue or blood; remark: listed apart in the source
Description: In vitro assay for PGE-2 production as a function of COX-2 inhibition in whole human blood cultured with lipopolysaccharide (LPS)

[3] = biological target: Prostaglandin G/H synthase 1 (Homo sapiens, UniProt P23219)
Prostaglandin G/H synthase 1, sequence (P23219 whole entry): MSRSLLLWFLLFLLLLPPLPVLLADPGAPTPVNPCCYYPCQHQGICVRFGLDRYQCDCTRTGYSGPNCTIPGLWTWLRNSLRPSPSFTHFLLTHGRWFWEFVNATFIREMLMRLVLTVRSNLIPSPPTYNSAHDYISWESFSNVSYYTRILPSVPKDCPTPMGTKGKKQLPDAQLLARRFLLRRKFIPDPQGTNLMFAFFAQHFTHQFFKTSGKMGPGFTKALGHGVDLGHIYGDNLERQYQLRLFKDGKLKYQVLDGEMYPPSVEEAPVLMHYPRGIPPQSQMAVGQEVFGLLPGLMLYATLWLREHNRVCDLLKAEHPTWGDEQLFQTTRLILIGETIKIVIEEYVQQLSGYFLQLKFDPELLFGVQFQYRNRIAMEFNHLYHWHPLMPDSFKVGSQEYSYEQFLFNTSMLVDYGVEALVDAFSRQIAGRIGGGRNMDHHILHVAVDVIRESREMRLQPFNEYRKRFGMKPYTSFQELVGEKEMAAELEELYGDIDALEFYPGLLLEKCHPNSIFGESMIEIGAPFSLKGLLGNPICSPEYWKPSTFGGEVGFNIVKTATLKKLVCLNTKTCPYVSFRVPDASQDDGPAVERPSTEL
Description: In Vitro activity of compound against human recombinant Prostaglandin G/H synthase 1

IC50 (Homo sapiens [1])	IC50 (Homo sapiens [2])	IC50 [3]	SMILES
6.67 µM	0.164 µM	–	Cc1ccc(-c2cc(C(F)(F)F)nn2-c2ccc(S(N)(=O)=O)cc2)cc1 [CELECOXIB]
25.4 µM	0.89 µM	–	Cc1onc(-c2ccccc2)c1-c1ccc(S(N)(=O)=O)cc1 [VALDECOXIB]
> 50 µM	0.329 µM	1120 µM	NS(=O)(=O)c1ccc(-c2c(-c3ccccc3)noc2CO)cc1 [HYDROXYLATED DERIVATIVE]
